Here are results for one substance from patent publication US4824937A, “Synthetic natriuretic peptides” (501 Advanced Peptide Development, Ltd., priority 1986, dated 1989).

Ends that are not written are not given here.

The experiment has as its system rabbit thoracic aorta strips. The experiment can be described thus: Vasorelaxant activity against noradrenaline-induced tension in aorta strips. The note with it: for Relative Potency: potency of BG-3009 taken arbitrarily as 100; for Ratio (noradrenaline EC50 in the presence of compound divided by EC50 with noradrenaline alone): added 5 min before noradrenaline. As to the method: The vasorelaxant activities of the SNP of this invention are determined in vitro using freshly prepared rabbit thoracic aorta strips, helically cut according to the method of Furchgott et al., 1953 J. Pharmacol. Exp. Therap. 108, 129. One end of each strip is attached to a holding rod, the other end is equipped with a silk thread which is kept under a tension of about 5 g, and the complete assembly is kept over night at 4° C. in oxygenated Krebs solution. On the day of the experiment each strip is set up in a 10 ml bath of oxygenated (5% CO2) Krebs solution at 37° C. and the thread is attached to an isometric force transducer (Grass Instruments Model FT.03) connected to a polygraph (Grass Instruments Model 5). A resting tension of 5 g is applied to each strip and is readjusted until a stable resting tension is attained (45-60 minutes). The strips are then challenged repeatedly with the same dose of noradrenaline to ensure that the induced increase in tension is uniform. The stock solution of noradrenaline bitartrate (Sigma Chemical Co.) is made up in 0.001N HCl, and dilutions are freshly prepared in deionized water containing 0.0001M ascorbic acid and are kept protected from light during the experiments. In each experiment two cumulative full dose-response determinations to noradrenaline alone are carried out consecutively on one strip (time control). On the other strips dose-response determinations are done with noradrenaline alone, and then repeated five minutes after having added the compound to be tested to concentrations of 2, 5, 50, and 500 ng/ml, respectively. The tension elicited by each concentration of noradrenaline is expressed as a percentage of the maximal response obtained with noradrenaline, and the concentration of noradrenaline producing a tension equal to 50% of the maximal response is calculated (EC50). The same calculations are also carried out with the results obtained in the presence of the various concentrations of the compound to be tested, and the EC50 thus obtained is divided by the EC50 obtained in the absence of said compound, to arrive at a ration which is clear indication of the potency of the respective compound.
The SNP of formula 1 in which R^1 is H-D-Tyr, R^2 is Ile, and R^3 is OH, identified by the code number 05-22-0318 is tested for its vasorelaxant activities and compared with a known ANP composed of 28 amino acid residues and identified by the code number BG-3009. The test method is described above in some detail. Two rabbits are sacrificed and the thoracic aorta prepared from each animal is helically cut so as to obtain five strips from each aorta. One strip from each aorta is used for time control and is exposed to the full range of concentrations of noradrenaline alone at the beginning and at the end of the experiment, and the concentrations of noradrenaline giving 50% of the maximal response are calculated (EC50). […] One strip from each of the remaining two pairs of strips from each aorta is then exposed to the full range of concentrations of noradrenaline alone as described above, and the responses are noted. The other strip from the same pair is first exposed to concentrations of 2, 5, 50, and 500 ng/ml of the compound to be tested, respectively, and five minutes after having added the above concentrations of the compound to be tested the strip is challenged with noradrenaline at increasing concentrations and the responses obtained are noted again. The EC50 obtained in the presence of the respective concentration of the compound to be tested is then divided by the EC50 obtained in the absence of said compound with noradrenaline alone, and the ratio of the two EC50's is calculated to give a clear measure of the vasorelaxant properties of said compound. Furthermore, when taking the potency of the reference compound having the code number BG-3009 arbitrarily as 100 the relative potencies of the above SNP (code No. 05-22-0318) at the respective levels of concentration are also calculated. […]

As for “BG-3009: known ANP composed of 28 amino acid residues, identical with the ANP described by Flynn et al. (SLRRSSCFGGRIDRIGAQSGLGCNSFRY; not fully specified; ends and bridges not checked; UniProt P01161 123-150, looked up)”, the “Relative Potency” value (2 ng/ml) is listed as 100, the “Relative Potency” value (5 ng/ml) is 100, the “Relative Potency” value (50 ng/ml) was 100 and the “Relative Potency” value (500 ng/ml) was found to be 100. Also, the “Ratio (noradrenaline EC50 in the presence of compound divided by EC50 with noradrenaline alone)” value stood at 2.9 (compound concentration 2 ng/ml), 3.8 (compound concentration 5 ng/ml), 25.8 (compound concentration 50 ng/ml) and 26.1 (compound concentration 500 ng/ml).
